According to patent US12479849B2, “EGFR inhibitors for the treatment of cancer” (Hoffmann-La Roche Inc., priority 2019, dated 2025):

Target: T1, EGFR TMLRCS (Homo sapiens, UniProt P00533, C797S/L858R/T790M)
T1 construct: host or cells: BaF3-TMLRCS (Ba/F3 cells, kept under puromycin selection)
Test: HTRF Phospho EGFR TMLRCS Assay (Cellular)
Assay type: cell-based
Details: BaF3-TMLRCS cell line, 4 hours incubation, Phospho-EGFR HTRF readout
Description: HTRF Phospho EGFR TMLRCS Assay (Cellular)
BaF3-TMLRCS cell line were obtained from Crownbio (San Diego, CA, USA). Cells were maintained at 37° C., 5% CO2 in RPMI ATCC (Gibco 31870)+2 mM Glutamine+0.5 μg/ml Puromycin supplemented with 10% fetal bovine serum (FBS) (Gibco).
Cells are transferred as above to Greiner Bio-One, Nr. 784-08 micro-titerplate at 20000 cells/well in 12.5 μl of growth medium/well after the plates had been pre-filled with 12.5 nl of DMSO solutions of the to be tested compounds (in dose response) or DMSO only. After spinning the plates at 300×g for 30 seconds the cells were incubated for 4 hours at 37 C, 5% CO2, 95% humidity. The cells were lysed by adding to the compound mix 4 μl/well of the supplemented lysis buffer (Cis-bio, Phospho-EGFR HTRF kit, 64EG1PEH), followed by incubation for 30 min at room temperature with shaking (400 rpm). The plates were then frozen and stored overnight at −80 C. On the next day and after thawing the plates, 4 μl of a mixture of anti-Phospho-EGFR Cryptate and of anti-Phospho-EGFR-d2 antibody solutions prepared in the supplied detection buffer was added to each well. The lidded plates were then incubated for 4 h at room temperature before reading the fluorescence emission at 616 and 665 nm using an Envision reader (Perkin Elmer). Data was analyzed in similar fashion as above using the normalized ratio of the 665 to 616 signals multiplied by 10000.

T1 sequence (P00533 25-1210 T790M/C797S/L858R): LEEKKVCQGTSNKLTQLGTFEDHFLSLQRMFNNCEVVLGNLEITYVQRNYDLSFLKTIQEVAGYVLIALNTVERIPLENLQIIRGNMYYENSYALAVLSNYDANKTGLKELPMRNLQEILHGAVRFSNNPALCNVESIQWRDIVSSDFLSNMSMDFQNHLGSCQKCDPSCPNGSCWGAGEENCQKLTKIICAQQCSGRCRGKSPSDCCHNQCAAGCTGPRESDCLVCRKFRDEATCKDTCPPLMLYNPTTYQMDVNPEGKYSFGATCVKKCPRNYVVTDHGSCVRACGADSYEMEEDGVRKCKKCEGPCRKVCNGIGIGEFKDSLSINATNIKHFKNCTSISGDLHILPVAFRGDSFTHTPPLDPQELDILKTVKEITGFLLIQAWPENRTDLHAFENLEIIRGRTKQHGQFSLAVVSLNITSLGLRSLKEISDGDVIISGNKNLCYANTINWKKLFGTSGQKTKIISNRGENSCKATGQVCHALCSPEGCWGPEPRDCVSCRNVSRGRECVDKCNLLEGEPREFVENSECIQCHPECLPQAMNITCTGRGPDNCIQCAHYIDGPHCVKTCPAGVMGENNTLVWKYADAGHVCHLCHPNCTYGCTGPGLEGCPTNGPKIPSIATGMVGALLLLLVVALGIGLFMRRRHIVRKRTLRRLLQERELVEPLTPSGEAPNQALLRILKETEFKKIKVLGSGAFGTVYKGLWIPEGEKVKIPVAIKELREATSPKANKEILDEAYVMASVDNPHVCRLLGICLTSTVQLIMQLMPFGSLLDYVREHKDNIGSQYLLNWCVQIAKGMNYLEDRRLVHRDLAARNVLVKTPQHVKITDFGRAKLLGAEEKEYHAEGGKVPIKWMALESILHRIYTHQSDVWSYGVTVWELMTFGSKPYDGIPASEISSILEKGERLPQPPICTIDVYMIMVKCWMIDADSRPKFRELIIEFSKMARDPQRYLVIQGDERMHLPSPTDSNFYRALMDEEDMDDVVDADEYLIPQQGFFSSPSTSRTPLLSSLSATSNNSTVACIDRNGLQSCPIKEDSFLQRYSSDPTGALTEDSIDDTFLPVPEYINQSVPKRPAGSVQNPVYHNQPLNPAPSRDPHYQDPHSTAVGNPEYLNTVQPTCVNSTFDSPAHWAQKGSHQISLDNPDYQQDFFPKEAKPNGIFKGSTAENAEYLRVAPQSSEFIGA

Compound	IC50 [nM]
COCCNCCc1ccc(-c2cc(Cl)c3cn(C(C(=O)Nc4nccs4)c4ncn5c4C[C@@H](F)C5)nc3c2Cl)cc1 (mixture of isomers) [Example 101, rac-2-(4,7-Dichloro-6-(4-(24(2-methoxyethyl)amino)ethyl)phenyl)-2H-indazol-2-yl)-2-((R)-6-fluoro-6,7-dihydro-5H-pyrrolo[1,2-c]imidazol-1-yl)-N-(thiazol-2-yl)acetamide]	10
CCN1C[C@@H]2CN(c3ccc(-c4cc(Cl)c5cn(C(C(=O)Nc6nccs6)c6ncn7c6C[C@@H](F)C7)nc5c4Cl)cc3)C[C@@H]2C1 (stereo partly drawn) [Example 81, 2-(4,7-Dichloro-6-(4-((3aR,6aS)-5-ethylhexahydropyrrolo[3,4-c]pyrrol-2(1H)-yl)phenyl)-2H-indazol-2-yl)-2-((R)-6-fluoro-6,7-dihydro-5H-pyrrolo[1,2-c]imidazol-1-yl)-N-(thiazol-2-yl)acetamide]	9
O=C(Nc1nccs1)C(c1ncn2c1C[C@@H](F)C2)n1cc2c(Cl)cc(-c3ccc(OCCN4CCC5(CC4)CC(O)C5)cc3)c(Cl)c2n1 (mixture of isomers) [Example 92, rac-2-(4,7-Dichloro-6-(4-(2-(2-hydroxy-7-azaspiro[3.5]nonan-7-yl)ethoxy)phenyl)-2H-indazol-2-yl)-2-((R)-6-fluoro-6,7-dihydro-5H-pyrrolo[1,2-c]imidazol-1-yl)-N-(thiazol-2-yl)acetamide]	13
O=C(Nc1nccs1)C(c1ncn2c1C[C@@H](F)C2)n1cc2c(Cl)cc(-c3ccc(N4CC(CN5CCC(CO)CC5)C4)cc3)c(Cl)c2n1 (mixture of isomers) [Example 59, rac-2-(4,7-Dichloro-6-(4-(3-((4-(hydroxymethyl)piperidin-1-yl)methyl)azetidinyl)phenyl)-2H-indazol-2-yl)-2-((R)-6-fluoro-6,7-dihydro-5H-pyrrolo[1,2-c]imidazol-1-yl)-N-(thiazol-2-yl)acetamide]	5
O=C(Nc1nccs1)C(c1ncn2c1C[C@@H](F)C2)n1cc2c(Cl)cc(-c3ccc(N4CCN(C5CC(O)C5)CC4)cc3)c(Cl)c2n1 (mixture of isomers) [Example 66, rac-2-(4,7-Dichloro-6-(4-(4-(3-hydroxycyclobutyl)piperazin-1-yl)phenyl)-2H-indazol-2-yl)-2-((R)-6-fluoro-6,7-dihydro-5H-pyrrolo[1,2-c]imidazol-1-yl)-N-(thiazol-2-yl)acetamide]	2
CCN1C[C@H]2CC(c3ccc(-c4cc(Cl)c5cn(C(C(=O)Nc6nccs6)c6ncn7c6C[C@@H](F)C7)nc5c4Cl)cc3)C[C@H]2C1 (stereo partly drawn) [Example 43, 2-(4,7-Dichloro-6-(4-((3aR,6aS)-2-ethyloctahydrocyclopenta[c]pyrrol-5-yl)phenyl)-2H-indazol-2-yl)-2-((R)-6-fluoro-6,7-dihydro-5H-pyrrolo[1,2-c]imidazol-1-yl)-N-(thiazolyl)acetamide]	11
O=C(Nc1nccs1)C(c1ncn2c1C[C@@H](F)C2)n1cc2c(Cl)cc(-c3ccc(C45CC(CN6CCC(CO)CC6)(C4)C5)cc3)c(Cl)c2n1 (mixture of isomers) [Example 50, rac-2-(4,7-Dichloro-6-(4-(3-((4-(hydroxymethyl)piperidin-1-yl)methyl)bicyclo[1.1.1]pentan-1-yl)phenyl)-2H-indazol-2-yl)-2-((R)-6-fluoro-6,7-dihydro-5H-pyrrolo[1,2-c]imidazol-1-yl)-N-(thiazol-2-yl)acetamide]	12
O=C(Nc1nccs1)C(c1ncn2c1C[C@@H](F)C2)n1cc2c(Cl)cc(-c3ccc(CN4C[C@H]5COC[C@H]5C4)cc3)c(Cl)c2n1 (mixture of isomers) [Example 99, rac-2-(4,7-Dichloro-6-(4-0(3aR,6aS)-tetrahydro-1H-furo[3,4-c]pyrrol-5(3H)-yl)methyl)phenyl)-2H-indazol-2-yl)-2-((R)-6-fluoro-6,7-dihydro-5H-pyrrolo[1,2-c]imidazol-1-yl)-N-(thiazol-2-yl)acetamide]	6
CC(F)CN1CCC(c2ccc(-c3cc(Cl)c4cn(C(C(=O)Nc5nccs5)c5ncn6c5C[C@@H](F)C6)nc4c3Cl)cc2)CC1 (stereo partly drawn) [Example 44, 2-(4,7-Dichloro-6-(4-(1-(2-fluoropropyl)piperidin-4-yl)phenyl)-2H-indazol-2-yl)-2-((R)-6-fluoro-6,7-dihydro-5H-pyrrolo[1,2-c]imidazol-1-yl)-N-(thiazol-2-yl)acetamide]	13
O=C(Nc1nccs1)C(c1ncn2c1C[C@@H](F)C2)n1cc2c(Cl)cc(-c3ccc(N4CCOC(CO)C4)cc3)c(Cl)c2n1 (mixture of isomers) [Example 67, rac-2-(4,7-Dichloro-6-(4-(2-(hydroxymethyl)morpholino)phenyl)-2H-indazol-2-yl)-2-((R)-6-fluoro-6,7-dihydro-5H-pyrrolo[1,2-c]imidazol-1-yl)-N-(thiazol-2-yl)acetamide]	3
CN(C)CCc1ccc(-c2cc(Cl)c3cn(C(C(=O)Nc4nccs4)c4ncn5c4C[C@@H](F)C5)nc3c2Cl)cc1 (stereo partly drawn) [Example 35, 2-(4,7-Dichloro-6-(4-(2-(dimethylamino)ethyl)phenyl)-2H-indazol-2-yl)-2-((R)-6-fluoro-6,7-dihydro-5H-pyrrolo[1,2-c]imidazol-1-yl)-N-(thiazol-2-yl)acetamide]	6
O=C(Nc1nccs1)C(c1ncn2c1C[C@@H](F)C2)n1cc2c(Cl)cc(-c3ccc([C@@H]4CCN(C5CC(O)C5)C[C@H]4F)cc3)c(Cl)c2n1 (single isomer, unassigned) [Example 55]	5
O=C(Nc1nccs1)C(c1ncn2c1C[C@@H](F)C2)n1cc2c(Cl)cc(-c3ccc(CCN4CCC(O)CC4)cc3)c(Cl)c2n1 (mixture of isomers) [Example 64, rac-2-(4,7-Dichloro-6-(4-(2-(4-hydroxypiperidin-1-yl)ethyl)phenyl)-2H-indazol-2-yl)-2-((R)-6-fluoro-6,7-dihydro-5H-pyrrolo[1,2-c]imidazol-1-yl)-N-(thiazol-2-yl)acetamide]	7
O=C(Nc1nccs1)C(c1ncn2c1CCC2)n1cc2c(Cl)cc(-c3ccc(N4CCOCC4)cc3)c(Br)c2n1 (stereo not shown) [Example 134, 2-(7-Bromo-4-chloro-6-(4-morpholinophenyl)-2H-indazol-2-yl)-2-(6,7-dihydro-5H-pyrrolo[1,2-c]imidazol-1-yl)-N-(thiazol-2-yl)acetamide]	32
CCN1CC[C@@H](c2ccc(-c3cc(C)c4cn(C(C(=O)Nc5nccs5)c5ncn6c5CCC6)nc4c3Cl)cc2)[C@H](F)C1 (single isomer, unassigned) [Example 127]	9
O=C(Nc1nccs1)C(c1ncn2c1C[C@@H](F)C2)n1cc2c(Cl)cc(-c3ccc(C4CN(CCO)C4)cc3)c(Cl)c2n1 (stereo partly drawn) [Example 84, 2-(4,7-Dichloro-6-(4-(1-(2-hydroxyethyl)azetidin-3-yl)phenyl)-2H-indazol-2-yl)-2-((R)-6-fluoro-6,7-dihydro-5H-pyrrolo[1,2-c]imidazol-1-yl)-N-(thiazol-2-yl)acetamide]	12
Cc1c(-c2ccc(N3CCOCC3)cc2)cc(Cl)c2cn(C(C(=O)Nc3nccs3)c3ncn4c3C[C@@H](F)C4)nc12 (stereo partly drawn) [Example 105, 2-(4-Chloro-7-methyl-6-(4-morpholinophenyl)-2H-indazol-2-yl)-2-((R)-6-fluoro-6,7-dihydro-5H-pyrrolo[1,2-c]imidazol-1-yl)-N-(thiazol-2-yl)acetamide]	8
O=C(Nc1nccs1)C(c1ncn2c1C[C@@H](F)C2)n1cc2c(Cl)cc(-c3ccc(CN4CCC(CCO)CC4)cc3)c(Cl)c2n1 (stereo partly drawn) [Example 78, 2-(4,7-Dichloro-6-(4-((4-(2-hydroxyethyl)piperidin-1-yl)methyl)phenyl)-2H-indazol-2-yl)-2-((R)-6-fluoro-6,7-dihydro-5H-pyrrolo[1,2-c]imidazol-1-yl)-N-(thiazol-2-yl)acetamide]	3
CC(O)C1CCN(CCc2ccc(-c3cc(Cl)c4cn(C(C(=O)Nc5nccs5)c5ncn6c5C[C@@H](F)C6)nc4c3Cl)cc2)CC1 (mixture of isomers) [Example 60, rac-2-(4,7-Dichloro-6-(4-(2-(4-(1-hydroxyethyl)piperidin-1-yl)ethyl)phenyl)-2H-indazol-2-yl)-2-((R)-6-fluoro-6,7-dihydro-5H-pyrrolo[1,2-c]imidazol-1-yl)-N-(thiazol-2-yl)acetamide]	9
Cc1cc(-c2ccc(OCCN3CCC(CO)CC3)cc2)c(Cl)c2nn(C(C(=O)Nc3nccs3)c3ncn4c3C[C@@H](F)C4)cc12 (mixture of isomers) [Example 132, rac-2-(7-Chloro-6-(4-(2-(4-(hydroxymethyl)piperidin-1-yl)ethoxy)phenyl)-4-methyl-2H-indazol-2-yl)-2-((R)-6-fluoro-6,7-dihydro-5H-pyrrolo[1,2-c]imidazol-1-yl)-N-(thiazol-2-yl)acetamide]	7
O=C(Nc1nccs1)C(c1ncn2c1C[C@@H](F)C2)n1cc2c(Cl)cc(-c3ccc([C@@H]4CCN(CCO)C[C@H]4F)cc3)c(Cl)c2n1 (single isomer, unassigned) [Example 54]	5
CCN1CCN(c2ccc(-c3cc(Cl)c4cn(C(C(=O)Nc5nccs5)c5ncn6c5C[C@@H](F)C6)nc4c3Cl)cc2)CC1 (stereo partly drawn) [Example 26, 2-(4,7-Dichloro-6-(4-(4-ethylpiperazin-1-yl)phenyl)-2H-indazol-2-yl)-2-((R)-6-fluoro-6,7-dihydro-5H-pyrrolo[1,2-c]imidazol-1-yl)-N-(thiazol-2-yl)acetamide]	4
